Literature values as cited in US20090048261A1, “Pharmaceutical Composition for Treatment of Ocular Hypertension” (priority 2007, published 2009).
“And” between values parts separate entries of the source, which are not always exact repeats. Identical values can stand only once. Like-named read-outs stand apart in the source and are kept apart here. Blank lines part the entries; values can stand above or below the compound they belong to.

Assays:
[1] = tested on: patients with glaucoma or ocular hypertension; conditions: for difference in effectiveness of brimonidine and dorzolamide: jointly used with topical beta-blockers, Cantor
[2] = tested on: alpha-2-andrenergic receptors; conditions: compared with clonidine
[3] = tested on: carbonic anhydrase isoenzyme; conditions: after 4 weeks of bilateral treatment
[4] = tested on: primary open-angle glaucoma patients; conditions: 30 patients
[5] = topical

Compound: CCN[C@H]1C[C@H](C)S(=O)(=O)c2sc(S(N)(=O)=O)cc21 [dorzolamide]
- additional reduction of intraocular pressure when added to topical brimonidine ([1]; dorzolamide at 2%, patients with intraocular pressure of at least 22 mm Hg, 30 days, Ermis): up to 29%
- reduction of intraocular pressure when added to timolol ([1]; human, in vivo): 20%
- difference in effectiveness of brimonidine and dorzolamide [1]: no statistically significant differences
- binding to plasma proteins (plasma proteins): ~33%
- decrease of carbonic anhydrase isoenzyme's activity, of its basic activity [3]: 21%

Compound: CC(C)OC(=O)CCC/C=C\C[C@@H]1[C@@H](CC[C@@H](O)CCc2ccccc2)[C@H](O)C[C@@H]1O [latanoprost]
- increase in pulsating ocular blood flow [4]: 2.15 µL/s
- reduction of intraocular pressure [4]: 3.75 mmHg

Compound: Brimonidine tartrate
- time of peak ocular antihypertensive effects (topical administration of ophthalmic solution): 2 to 3 h

Second part, led by results:

- selectivity to alpha-2 adrenergic receptors [2]: higher selectivity
Compound: Brc1c(NC2=NCCN2)ccc2nccnc12 [brimonidine]
- effectiveness in reducing ocular hypertension, brimonidine at 0.2% versus dorzolamide at 2% ([1]; joint therapy with topical beta-blockers, adults with ocular hypertension, Simmons): more effective
- additive effect of intraocular pressure reduction ([1]; joint treatment to topical beta-blocker therapy): 5 mmhg and 3.7 mmhg
- difference in effectiveness of brimonidine and dorzolamide [1]: no statistically significant differences

- effect over pupil size or accommodation [5]: little or no effect
Compound: CC(C)(C)NC[C@H](O)COc1nsnc1N1CCOCC1 [timolol]
- time over which ocular antihypertensive effect is maintained (chronic use): up to three years
- duration of effect (one drop of timolol at 0.5%): over 24 hours
- start of the drug's action (one drop of timolol at 0.5%): after an hour
- time of peak effect (one drop of timolol at 0.5%): 2 h
- start of the drug's action (one drop, topical ocular instillation): within a single hour
- duration of significant reduction of intraocular pressure (single dose): up to 24 hours
- systemic effects after absorption [5]: decrease in heart rate, cardiac arrhythmia and bronchial spasm
